Results taken from patent US20230097801A1, “METHODS OF INCREASING CELL PHAGOCYTOSIS” (National Health Research Institutes, priority 2021, published 2023).

Test system: human B-cell lymphoma Raji xenograft tumor
Experiment: Raji xenograft anti-tumor efficacy and survival study (3 weeks treatment)
Type: in vivo, NOD/SCID mice
Settings: Compound 34 100 mg/kg p.o. QD*5, rituximab 10 mg/kg i.p. 2QW
Excerpt: Human B-cell lymphoma Raji cells were used to evaluate the efficacy of Compound 34 and rituximab in treating cancer cells. Prior to injection into animals, the cancer cells were detected as free of Mycoplasma spp. NOD/SCID mice (BioLasco, Taiwan) were used for in vivo experiments due to their higher affinity of SIRPα to human CD47. The mice used in these studies were housed in Institutional Animal Care and Use Committees-approved facility at National Health Research Institutes in accordance with guidelines for the care and use of laboratory animals.
One million Raji cells in culture medium and matrigel (1:1, v/v) were injected subcutaneously into the left flank region of the mice (n=7 to 10 animals per group). Treatments were initiated after randomization with inclusion of tumors at approximately 100 mm^3. A dosing vehicle for Compound 34 was prepared using 10% DMA: 40% PEG400: 50% (1% CMC) (v/v/v) and was dosed orally (p.o.) at 100 mg/kg once a day, 5 days a week (Q.D.*5). Rituximab (Roche-Genentech, South San Francisco, Calif.) stock solution was diluted with PBS and dosed at 10 mg/kg twice a week (2QW) by intraperitoneal (i.p.) injection.
To evaluate anti-tumor efficacy and survival rates, mice were treated with vehicle control, 10 mg/kg rituximab (2QW, i.p.), 100 mg/kg Compound 34 (QD*5), or rituximab in combination with Compound 34. Treatment was discontinued at the end of 3 weeks. The mice were monitored for cancer growth and body weight once a week. Cancer growth was measured by volume with an electronic caliper. The volume was calculated as L×W^2/2, in which L is the length of the tumor and W is its width. Tumor size and animal body weight were measured once a week after cancer cell inoculation. Cancer response at the end of the study was calculated as tumor growth inhibition (TGI) using (1−T/C)*100, in which T is the mean tumor volume (mm^3) of the test group, and C is the mean tumor volume (mm^3) of the vehicle-treated group. […] For the survival study, treatment was discontinued at the end of 3 weeks. Thereafter, mice were followed up for tumor growth and body weight once a week. The mice were then sacrificed when tumor volume reached 2,000 mm^3 or body weight loss was greater than 10%. Kaplan-Meier plots were used as the study end point to calculate percentage of animals remaining in the study in term of the time. The median survival days for vehicle control and Compound 34 were 15.5 days and 18 days, respectively (FIG. 5E). Rituximab prolonged median survival days to 28 days after treatment discontinued (FIGS. 5C and 5E). Importantly, the combination of rituximab and Compound 34 further prolonged median survival days to 47 days (FIGS. 5D and 5E).

With `O=C1NC[C@H](c2ccc(-c3csc(C(F)(F)F)c3)c(F)c2F)N1c1ccc2[nH]cnc2c1` [Compound 34] as the compound, how does the “tumor growth inhibition (TGI, % of control)” value (3 weeks) read?
Its value is 41.4%.

What about the median survival days (treatment discontinued at 3 weeks) of the same compound?
The median survival days was 18 days.
